# Patent US10959966B2, “Compositions and methods for modulating HEXM1 expression” (CASE WESTERN RESERVE UNIVERSITY, priority 2014, dated 2021)
# How the values were obtained:
# Type in all cases: cell-based
# [1] = test system: HEXIM1 expression in LNCaP prostate cancer cells; assay: HEXIM1 expression by western blot in LNCaP cells treated with HMBA analogs
# Procedure: (§1) FIGS. 2(A-B) illustrate Western blots and a graph showing the effect of HMBA analogs on HEXIM1 expression. LNCaP cells were treated with vehicle, HMBA (5 mM) and its analogs at 500 μM for 24 h. Level of HEXIM1 (upper panel) and β-actin (lower panel) was analyzed by Western blot of cell extracts with HEXIM1 antibody and β-actin antibody respectively. The bands of HEXIM1 were quantified using ImageJ (NIH) and normalized to β-actin. The results are the representative of three independent experiments.
# as §1, with “3(A-B)” for “2(A-B)”, “lower concentration” for “the effect”, “identified” for “its”, “100” for “500”
# FIGS. 4(A-B) illustrate Western blots and a graph showing dose-dependent study of compound 4a1 and HMBA on HEXIM1 expression. Level of HEXIM1 (upper panel) and β-actin (lower panel) was analyzed by Western blot of cell extracts with HEXIM1 antibody and β-actin antibody respectively.
# HMBA analogs described herein can be synthesized based on the HMBA scaffold and then selected for their ability to induce HEXIM1 expression in an in vitro cell assay. For example, the synthesized HMBA analogs can be administered to cells, such as LNCaP prostate cancer cells, and the level of HEXIM1 in such cells can be measured using western blot analyses. The level of HEXIM1 expression of cells that are treated with a potential HMBA analog can be compared to control cells treated without the HMBA analog or with HMBA. Control cells (untreated or treated with HMBA) can be assigned a relative HEXIM1 expression value. Induction or promotion of HEXIM1 expression is achieved when the HEXIM1 expression relative to the control is increased at least about 1%, 5%, 10%, 15%, 20%, 30%, 50%, 75%, 100%, 200%, or more.
# The synthesis of the symmetrical and unsymmetrical derivatives is described in Scheme 1 and 2, respectively. For the symmetrical analogs, moieties A and C were kept identical. Besides the acetyl group of HMBA, methanesulfonyl group, propionyl group or butyryl group were introduced. In addition, a bulky benzoyl group was introduced. The active proton in the amide moiety was replaced with methyl group to generate a series of analogs with lower solubility. For the moiety B, various linkers such as 1,3-propylene, […] 1,4-cyclohexylene, 1,4-phenylene-bis(methylene), 1,4-cyclohexylene-bis(methylene) were tested for optimization. For the unsymmetrical analogs, the A and B moieties were kept the same as HMBA while the C moiety was modified with aryl or alkyl amide. A total of 32 compounds were synthesized, and these compounds were examined for their potency to induce HEXIM1 in LNCaP prostate cancer cells. HMBA (5 mM) was used as a positive control.
# Therefore, these three compounds were screened at lower concentrations.
# MCF7 cells = assay: Nile red staining of lipid droplets (differentiation marker), MCF7 cells; conditions: 72 hours
# Procedure: FIGS. 8(A-B) illustrate images showing (A) MCF7 cells transfected with control or HEXIM1 siRNA or (B) MDA-MB-231 transfected with control or HEXIM1 expression vector treated with vehicle (DMSO), HMBA, or 4a1 for 72 hours. Lower panels show Western blot analyses of HEXIM1 expression in MDA-MB-231 cells transfected with control or expression vector for Flag-tagged HEXIM1.
# Cells were stained with Nile red for lipid droplets (marker of cell differentiation). Briefly, the stock solution of Nile red 1 mg/ml in acetone was diluted in PBS (1:1000). The fixed cells (4% paraformaldehyde) were incubated with diluted Nile red for 5 minutes at room temperature, rinsed with PBS and observed for the presence of lipid droplets by confocal microscopy. Images were digitally captured using a Leica microscope (Leica Microsystems Inc, IL, USA).
# [2] = test system: recruitment of CDK9 to HEXIM1 gene in MCF7 cells; assay: ChIP assay, CDK9 recruitment to HEXIM1 gene, MCF7 cells; conditions: 5 mM HMBA or 50 μM 4a1, 90 minutes
# Procedure: (§2) FIGS. 6(A-B) illustrate graphs showing HEXIM1 graphs showing HMBA and 4a1 induced recruitment of CDK9 to HEXIM1 promoter in MCF7 and LNCaP cells treated with 5 mM HMBA or 50 μM 4a1 for 90 minutes.
# (§3) ChIP assays were carried out as previously described. Anti-CDK9 antibody (D-7; cat# sc-13130) was obtained from Santa Cruz Biotechnology.
# (§4) The induction of HEXIM1 by HMBA appears to involve the release of free P-TEFb from 7SK snRNP, and recruitment of P-TEFb to HEXIM1 gene. P-TEFb is a heterodimer between the cyclin-dependent kinase 9 (Cdk9) and its regulatory subunit Cyclin T1 (CycT1). We thus determined the regulation of the recruitment of CDK9 to the HEXIM1 coding sequence by HMBA and 4a1.
# [3] = test system: recruitment of CDK9 to HEXIM1 gene in LNCaP cells; assay: ChIP assay, CDK9 recruitment to HEXIM1 gene, LNCaP cells; conditions: 5 mM HMBA or 50 μM 4a1, 90 minutes
# Procedure: as §2, §3, §4
# [4] = test system: p21 expression in prostate cancer LNCaP cells; assay: p21 expression by western blot, LNCaP cells; conditions: 5 mM HMBA or 50 μM 4a1, 18 hours
# Procedure: FIGS. 7(A-B) illustrate Western blots showing (A) MCF7 (control siRNA or HEXIM1 siRNA) and (B) LNCaP (control shRNA or HEXIM1 shRNA) cells treated with vehicle (DMSO), 5 mM HMBA, or 50 μM 4a1 for 18 hours.
# Cell lysates were analyzed by western blot as previously described. Anti-HEXIM1 was generated in the Montano laboratory. Primary antibodies against p21 (C-19; cat# sc-397), cyclin D1 (HD11; cat# sc-246) and myc (9E10; cat# sc-40) were obtained from Santa Cruz Biotechnology. Anti-GAPDH was obtained from Millipore. Anti-HIF-1α was obtained from Oxy-cell, Bioresearch).
# HMBA was investigated in a Phase II clinical trial due to its potent anti-cancer and cell differentiation activities. Moreover, the roles of HMBA, and potentially 4a1, as differentiating factors are advantageous for their therapeutic use when compared to cytotoxic agents. […] We also examined the ability of 4a1 to induce differentiation and the relative role of HEXIM1.
smiles,measurement,setting,value
COc1ccc(CC(=O)NCCCCCCNC(C)=O)cc1 [Compound 4a1],HEXIM1 expression compared to the vehicle treatment (cutoff 2.5 fold),"[1]; LNCaP cells, analogs at 500 μM, 24 h, western blot normalized to β-actin",did not reach the cutoff
same,Dose-dependent study on HEXIM1 expression,"[1]; western blot, FIG. 4",dose-dependently induced HEXIM1 expression
same,"Cell differentiation (lipid droplets, Nile red)",MCF7 cells,induced differentiation
same,Recruitment of CDK9 to HEXIM1 gene,[2],induce recruitment of CDK9
same,Recruitment of CDK9 to HEXIM1 gene,[3],induce recruitment of CDK9
same,p21 expression,[4],induction of p21 expression
